Test results as given in patent US9340809B2, “Microbial conversion of sugar acids and means therein” (VALTION […] TUTKIMUSKESUS, priority 2005, dated 2016).

Key:
[1] = target: T1, L-galactonic acid dehydratase (Trichoderma reesei, UniProt Q0QWS4); experiment: specificity test of L-galactonic acid dehydratase in yeast extract of strain H3350, formation of reducing sugars; type: biochemical, Hypocrea jecorina (Trichoderma reesei); details: yeast extract of S. cerevisiae strain H3350 expressing lgd1; formation of reducing sugars followed
T1 construct: made in house; host or cells: Saccharomyces cerevisiae strain H3350 (DSM 17214), crude yeast extract
T1 sequence (Q0QWS4 1-450): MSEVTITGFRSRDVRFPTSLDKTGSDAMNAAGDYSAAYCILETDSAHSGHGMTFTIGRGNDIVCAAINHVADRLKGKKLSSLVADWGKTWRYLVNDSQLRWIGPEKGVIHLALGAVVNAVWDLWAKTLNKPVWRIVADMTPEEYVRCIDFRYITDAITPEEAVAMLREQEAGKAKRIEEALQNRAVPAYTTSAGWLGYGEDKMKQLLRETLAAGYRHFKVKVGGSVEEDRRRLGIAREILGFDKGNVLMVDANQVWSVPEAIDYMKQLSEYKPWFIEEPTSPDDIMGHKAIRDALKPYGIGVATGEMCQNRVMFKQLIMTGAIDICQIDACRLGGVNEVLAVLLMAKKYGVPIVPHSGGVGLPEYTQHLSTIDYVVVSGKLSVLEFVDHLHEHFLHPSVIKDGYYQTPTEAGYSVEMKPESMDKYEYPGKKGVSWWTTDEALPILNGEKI
Text: The resulting vector was then transformed to a strain of Saccharomyces cerevisiae. The resulting S. cerevisiae strain was then disintegrated by vortexing with glass beads and the yeast extract analyzed for L-galactonic acid dehydratase activity. To assay the L-galactonic acid dehydratase activity L-galactonic acid was mixed with the yeast extract and formation of reducing sugars followed using standard protocols. (Bernfeld, P. (1955) “Amylases, α and β,” In: Methods In Enzymology, vol. 1, Colovick S. P., Kaplan, N. O. (eds.) Academic Press NY, pp 149-158).
To test the specificity of the enzyme the yeast extract as described before was mixed with the sugar acids D-gluconic acid, D-arabonic acid, D-xylonic acid, L-gulonic acid and L-galactonic acid. We followed the formation of reducing sugars as described in the example 1.

[2] = target: T1, L-galactonic acid dehydratase; experiment: conversion of L-galactonic acid by yeast extract of strain H3350, product quantified as 2-keto-3-deoxy sugar acid in a chemical assay; type: biochemical, Hypocrea jecorina (Trichoderma reesei); details: after 21 hours; protein concentration of yeast extract 0.15 g/l; initial L-galactonic acid concentration 10 mM
Method: L-galactonic acid was mixed with the yeast extract of strain H3350 as described in example 1. The reaction product was identified as a 2-keto-3-deoxy sugar acid in a chemical assay and quantified as described by Buchanan et al. (1999) Biochem. J., 343:563-570. The protein concentration of the yeast extract in the reaction medium was 0.15 g/l and the initial L-galactonic acid concentration 10 mM. After 21 hours 1.04 mM of L-threo-3-deoxy-hexulosonic acid was formed.

| Structure (SMILES) | enzyme activity with the sugar acid as substrate [1] | L-threo-3-deoxy-hexulosonic acid formed [2] [mM] |
| --- | --- | --- |
| O=C(O)[C@@H](O)[C@H](O)[C@H](O)CO [D-arabonic acid] | Activity was observed |  |
| O=C(O)[C@H](O)[C@@H](O)[C@H](O)[C@H](O)CO [D-gluconic acid] | does not exhibit activity |  |
| O=C(O)[C@H](O)[C@@H](O)[C@H](O)CO [D-xylonic acid] | does not exhibit activity |  |
| O=C(O)[C@@H](O)[C@H](O)[C@H](O)[C@@H](O)CO [L-galactonic acid] | Activity was observed | 1.04 |
